Measured values as given in patent US10188110B2 (TELEFLEX MEDICAL INCORPORATED, priority 2010, dated 2019).
Counter-ions that a name gives are not always drawn. Like-named read-outs stand apart in the source and are kept apart here.

Columns and labels:
[1] = system: Enterobacter aerogenes (E. aerogenes); test: Kirby-Bauer disk diffusion in HCl agar; assay type: cell-based; settings: for E. aerogenes Avg. ZOI: 5-FU 256 ppm
Method: (§1) Agar plates and cultures of S. aureus, P. aeruginosa, and Enterobacter aerogenes (E. aerogenes) were set up as described in EXPERIMENT 8. […] Cultures were diluted to 1×10^8 CFU/ml.
(§2) From each of the test solution, 20 μL was then dispensed over the Kirby Bauer diffusion disks. The disks were air dried for five minutes and using forceps applied over the agar plates. Plates were then incubated for 24 hours at 37° C. Subsequently the zones of inhibition were measured, in millimeters (mm) using calipers. Each test was run in triplicate.

S. aureus = settings: for S. Aureus Avg. ZOI, HCl Alone: Table 8
Method: as §1, §2

[2] = system: S. aureus and P. aeruginosa
From the text: One centimeter long catheter segments were cut from Multi-lumen Central Venous Catheters (CVC) from Rifampin and Minocycline impregnated CVCs (Rif/Mino). Cultures of S. aureus and P. aeruginosa were started in Muller Hinton Broth. For each organism, concentration of the inoculum was adjusted to 1×10^8 CFU/ml using 0.5 McFarland standard. […] Plates were sneaked with a single organism using a sterile cotton applicator that was dipped into the broth culture. Using sterile forceps, 1 cm long catheter segments from the control and Rif/Mino catheters were vertically inserted into the agar. Plates were then incubated for 24 hours at 37° C. Each test was run in triplicate. Subsequently the zones of inhibition (ZOI) were measured, in millimeters (mm) using calipers and the three ZOI measurements for each test were averaged.

[3] = system: S. aureus and P. aeruginosa; settings: HCl Conc. 0.001 M, Table 7
Method: as §1, §2

Compound | E. aerogenes Avg. ZOI ([1]; HCl Conc. 0 M) [mm] | E. aerogenes Avg. ZOI ([1]; HCl Conc. 0.01 M) [mm] | effect of HCl on inhibition ([1]; HCl concentration of 0.01 M) | S. Aureus Avg. ZOI (S. aureus; 5-FU 8 ppm, HCl Conc. 0 M) [mm] | S. Aureus Avg. ZOI (S. aureus; 5-FU 8 ppm, HCl Conc. 0.001 M) [mm] | S. Aureus Avg. ZOI (S. aureus; 5-FU 8 ppm, HCl Conc. 0.01 M) [mm] | S. Aureus Avg. ZOI (S. aureus; 5-FU 16 ppm, HCl Conc. 0 M) [mm] | S. Aureus Avg. ZOI (S. aureus; 5-FU 16 ppm, HCl Conc. 0.001 M) [mm] | S. Aureus Avg. ZOI (S. aureus; 5-FU 16 ppm, HCl Conc. 0.01 M) [mm] | E. aerogenes Avg. ZOI, HCl Alone ([1]; HCl Conc. 0.01 M, Table 9) [mm] | Avg. ZOI HCl Alone ([2]; HCl Conc. 0.001 M, Table 6) [mm] | highest HCl concentration that allowed formation of a confluent lawn of organisms ([2]; Muller Hinton Agar plates) [M] | S. Aureus Avg. ZOI, HCl Alone (S. aureus; HCl Conc. 0.001 M) [mm] | S. Aureus Avg. ZOI, HCl Alone (S. aureus; HCl Conc. 0.01 M) [mm] | Avg. ZOI HCl Alone [3] [mm]
O=c1[nH]cc(F)c(=O)[nH]1 [5-FU, 5-Fluorouracil] | 16.15 | 18.95 | enhanced inhibition | 0.0 | 0.0 | 13.8 | 10.0 | 11.5 | 21.4 |  |  |  |  |  | 
Cl [HCl, hydrochloric acid] |  |  |  |  |  |  |  |  |  | 0 | 0 | 0.01 | 0 | 0 | 0
